Counter-ions that a name gives are not always drawn.
Assays:
[1] = Analgesic effect by acetic acid writhing method; type: in vivo, mice of ddY strain; settings: Mus musculus, 20 min; oral, mice; 0.7% acetic acid i.p. 20 min after dosing; read-out: Analgesic action (ED50), Writhing method
Protocol: Test 1: ANALGESIC EFFECT BY ACETIC ACID WRITHING METHOD (Koster et al., Fed Proc., 18, 412 (1959))
Ten mice of ddY strain weighing 18-24 g were used in testing each compound. Twenty minutes after oral administration of test compounds, 0.1 ml/10 g of 0.7% acetic acid solution was injected intraperitoneally and the number of writhing syndromes was recorded for 10 minutes from 10 minutes after acetic acid injection. ED50 values were calculated from inhibition percent for each test compound.

[2] = Analgesic effect by tail pressure method; type: in vivo, mice of ddY strain; settings: Mus musculus; oral, mice; pain threshold at 30, 60, 90 and 120 min; read-out: Analgesic action (ED50), Tail pressure method
Protocol: Test 2: ANALGESIC EFFECT BY TAIL PRESSURE METHOD (Keijiro Takagi et al., Yakugaku Zasshi, 78, 553 ([…])) Ten mice of ddY strain weighing 18-24 g and showing pain threshold of 50-80 mmHg were used in testing each compound. The pain threshold was measured at 30, 60, 90 and 120 minutes after oral administration of the test compounds and positive analgesic response was recorded when the pain threshold was two or more times higher than pre-administration. ED50 values were calculated from the numbers of positive mice.

[3] = Analgesic effect by D'Amour-Smith's method; type: in vivo, mice of ddY strain; settings: Mus musculus; oral, mice; reaction time at 30, 60, 90 and 120 min; read-out: Analgesic action (ED50), D'Amour-Smith's method
Protocol: Test 3: ANALGESIC EFFECT BY D'AMOUR-[…] METHOD (D'Amour et al., J. Pharmacol. Exp. Ther., 72, 74 (1941)) Ten mice of ddY strain weighing 18-24 g and showing reaction times of 2-5 seconds were used in testing each compound. The reaction time was measured at 30, 60, 90 and 120 minutes after oral administration of the test compounds and positive analgesic response was recorded when the reaction time was two or more times longer than pre-administration. ED50 values were calculated from the number of positive mice.

[4] = Anti-inflammatory effect by carrageenin edema method; type: in vivo, male rats of Wistar strain; settings: rats; for Ratio of antiedematous action (100 mg/kg test compound/100 mg/kg phenylbutazone): ratio of inhibition % at 100 mg/kg oral, values marked * in the anti-inflammatory column; for ED50: Rattus norvegicus, oral, carrageenin edema, foot volume at 3 hours, read-out: Anti-inflammatory action (ED50)
Protocol: Test 4: ANTI-INFLAMMATORY EFFECT BY CARRAGEENIN EDEMA METHOD (Winter et al., Proc. Soc. Exp. Biol. Med., 111, 544 (1962)) Six male rats of Wistar strain weighing 110-120 g were used in testing each compound. […] ED50 values were calculated from the inhibition percent of foot volume, and the ratios of anti-edematous action of test compounds were calculated by the formula; (the inhibition % of 100 mg/kg test compounds)/(the inhibition % of 100 mg/kg phenylbutazone).

in vivo = assay: in vivo; parameters: species or system male rats of Wistar strain; settings: rat, po
Protocol: Test 5: ULCERATION IN STOMACH (Brodie et al., Gastroenterology, 56, 206 (1969))
Ten male rats of Wistar strain weighing 190-200 g were used for each dose. Rats were deprived of food for 24 hours before experiments. Test compounds were administered orally and 18 hours later the rats were sacrificed, thereafter the area of each gastric lesion was measured and summed under dissecting microscope (×9). UD50 values were calculated from the gastric lesion area.

SMILES | ED50 [1] [mg/kg] | ED50 [2] [mg/kg] | ED50 [3] [mg/kg] | Ratio of antiedematous action (100 mg/kg test compound/100 mg/kg phenylbutazone) [4] | ED50 [4] [mg/kg] | TD50 at 18 h (in vivo) [mg/kg]
CC(C)n1c2cc(Cl)ccc2c2oc(C(=O)NCCCN3CCCCC3)cc21 [Compound No. 8, 6-chloro-4-isopropyl-furo[3,2-b]indole-2-(N-piperidinopropyl)carboxamide] | 68.4 | 87 | 100 | 0.56 |  | 
CCn1c2cc(F)ccc2c2oc(C(=O)NCCCN3CCCCC3)cc21 [Compound No. 13, 4-ethyl-6-fluoro-furo[3,2-b]indole-2-(N-piperidinopropyl)carboxamide] | 87.5 | 90.8 | 79.9 | 0.84 |  | 
CC(C)Cc1ccc(C(C)C(=O)O)cc1 (centres unmarked) [Ibuprofen, reference compound] | 195 | 324 | > 300 |  | 66.5 | 278
Cn1c2cc(C(F)(F)F)ccc2c2oc(C(=O)NCCCN3CCCCC3)cc21 [Compound No. 10, 4-methyl-6-trifluoromethyl-furo[3,2-b]indole-2-(N-piperidinopropyl)carboxamide] | 32.5 | 38 | 49 |  | 45.4 | > 200
CC(C)n1c2cc(C(F)(F)F)ccc2c2oc(C(=O)NCCCN3CCCCC3)cc21 [Compound No. 12, 4-isopropyl-6-trifluoromethyl-furo[3,2-b]indole-2-(N-piperidinopropyl)carbonxamide] | 68.3 | 93 | 300 | 2.19 |  | 351
CCCn1c2cc(C)ccc2c2oc(C(=O)NCCCN3CCCCC3)cc21 [Compound No. 15, 6-methyl-4-n-propyl-furo[3,2-b]indole-2-(N-piperidinopropyl)carboxamide] | 91 | 79.2 | 87.6 | 0.78 |  | 
CCCCC1C(=O)N(c2ccccc2)N(c2ccccc2)C1=O [Phenylbutazone, reference compound] | 123 | > 300 | > 300 |  | 110 | 145
CCn1c2cc(C(F)(F)F)ccc2c2oc(C(=O)NCCCN3CCCCC3)cc21 [Compound No. 11, 4-ethyl-6-trifluoromethyl-furo[3,2-b]indole-2-(N-piperidinopropyl)carboxamide] | 30 | 41 | 50 | 1.29 |  | 
CCCn1c2cc(OC)ccc2c2oc(C(=O)NCCCN3CCCCC3)cc21 [Compound No. 14, 6-methoxy-4-n-propyl-furo[3,2-b]-indole-2-(N-piperidinopropyl)carboxamide] | 81.2 | 84.6 | > 100 | 0.92 |  | 
Cn1c2ccccc2c2oc(C(=O)NCCCN3CCCCC3)cc21 [Compound No. 2, 4-methyl-furo[3,2-b]indole-2-(N-piperidinopropyl)carboxamide] | 36 | 68 | 115 | 0.82 |  | 
Cn1c2cc(Cl)ccc2c2oc(C(=O)NCCCN3CCCCC3)cc21 [Compound No. 6, 6-chloro-4-methyl-furo[3,2-b]indole-2-(N-piperidinopropyl)carboxamide] | 29.5 | 50 | 59 | 1.29 |  | 
CCn1c2cc(Cl)ccc2c2oc(C(=O)NCCCN3CCCCC3)cc21 [Compound No. 7, 6-chloro-4-ethyl-furo[3,2-b]indole-2-(N-piperidinopropyl)carboxamide] | 56.4 | 41.8 | 31 | 1.45 |  | 
Cc1c(N(C)C)c(=O)n(-c2ccccc2)n1C [Aminopyrin, reference compound] | 38 | 98 | 225 |  |  | 
O=C(Cn1c(=O)sc2ccc(Cl)cc21)N1CCN(CCO)CC1 [Tiaramide HCl, reference compound] | 66 | 110 | 93 |  | 84.3 | > 200
O=C(NCCCN1CCCCC1)c1cc2[nH]c3cc(Cl)ccc3c2o1 [Compound No. 5, 6-chloro-furo[3,2-b]indole-2-(N-piperidinopropyl)carboxamide] | 64.2 | 80 | 100 | 0.73 |  | 400

Source: patent US4288596A, “Furoindoles” (priority 1978, dated 1981)
